Here are results for 78 compounds from the supplement of paper PMC8372320.
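Also: aromatic molecules in triethylamine/methanol/water with Pt photoreduced in situ, irradiated 3 h under a 1 sun AM 1.5G solar simulator (350–1000 nm), H2 quantified by headspace gas chromatography; listed molecule itself used as the photocatalyst at 5 mg per vial.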

The series is described as follows: photocatalytic hydrogen evolution rate (per 5 mg catalyst); higher = more photocatalytic H2 evolution; extreme values may be limits of the assay. Conditions: catalyst mass (mg): 5; Pt cocatalyst (wt%): 3; sacrificial medium: triethylamine/methanol/water 1:1:1.
Take `O=C1c2ccccc2-c2ccc3c4ccc5c6c(ccc(c7ccc1c2c73)c64)C(=O)c1ccccc1-5`: the “photocatalytic hydrogen evolution rate” value was 0.407 µmol/h.
Regarding `O=C1C=C(Br)C(=O)C=C1Br`, the “photocatalytic hydrogen evolution rate” value amounted to 0 µmol/h.
`O=Cc1cccc(C=O)n1`: the “photocatalytic hydrogen evolution rate” value came out at 0 µmol/h.
For the compound `N#Cc1cncc(Br)c1`, the “photocatalytic hydrogen evolution rate” value was determined as 0 µmol/h.
For `O=S1(=O)c2ccccc2-c2ccccc21`, the “photocatalytic hydrogen evolution rate” value was found to be 0.222 µmol/h.
Under `Cc1cc(C=O)cc(C)c1O` stands 0.0076 µmol/h.
Regarding `Fc1c(Br)cccc1Br`, the “photocatalytic hydrogen evolution rate” value came out at 0 µmol/h.
Regarding `Oc1c(Br)cc(Br)c(O)c1Br`, the “photocatalytic hydrogen evolution rate” value came out at 0 µmol/h.
As to `COC(=O)c1ccc(C(=O)OC)c(N)c1`, the “photocatalytic hydrogen evolution rate” value was 0.0112 µmol/h.
As to `Cc1c(C)c(Br)c(C)c(C)c1Br`, the “photocatalytic hydrogen evolution rate” value is 0 µmol/h.
On to `Nc1ccccc1C(=O)O`, for which the “photocatalytic hydrogen evolution rate” value was determined as 0.00138 µmol/h.
As to `O=C(O)c1ccc(-c2ccccc2)cc1`, the “photocatalytic hydrogen evolution rate” value was 0 µmol/h.
Take `CC(Oc1ccc(Br)cc1Br)C(=O)NN` (stereo not drawn): the “photocatalytic hydrogen evolution rate” value is 0 µmol/h.
Regarding `Cc1ccc(N)cc1C#N`, the “photocatalytic hydrogen evolution rate” value worked out at 0 µmol/h.
As for `CCc1c(CBr)c(CC)c(CBr)c(CC)c1CBr`, the “photocatalytic hydrogen evolution rate” value stood at 0 µmol/h.
Under `C=CS(=O)(=O)c1ccccc1` stands 0 µmol/h; under `Cn1cc(Br)nc(Br)c1=O`, 0 µmol/h.
Take `N#Cc1c(Cl)c(Cl)c(C#N)c(Cl)c1Cl`: the “photocatalytic hydrogen evolution rate” value worked out at 1.44 µmol/h.
With `CC(=O)c1ccc(N)cc1`, the “photocatalytic hydrogen evolution rate” value was determined as 0.229 µmol/h.
As for `COc1cc(C=O)cc(OC)c1O`, the “photocatalytic hydrogen evolution rate” value worked out at 0 µmol/h.
Consider `O=Cc1ccc(C(=O)O)cc1`, for which the “photocatalytic hydrogen evolution rate” value came out at 2.34 µmol/h.
Under `c1cn[nH]c1` stands 0 µmol/h.
For the compound `N#CC(C#N)=c1cc(F)c(=C(C#N)C#N)cc1F`, the “photocatalytic hydrogen evolution rate” value is 0 µmol/h.
Take `Cc1ccc(N(c2ccccc2)c2ccccc2)cc1`: the “photocatalytic hydrogen evolution rate” value came out at 0 µmol/h.
Under `Cc1cc(C#N)ccc1N` stands 0.0133 µmol/h; under `c1ccc(-c2ccccn2)nc1`, 0 µmol/h.
Turning to `CC1(C)c2cc(B3OC(C)(C)C(C)(C)O3)ccc2-c2ccc(B3OC(C)(C)C(C)(C)O3)cc21`, the “photocatalytic hydrogen evolution rate” value was determined as 0.0142 µmol/h.
Turning to `c1ccc(C(c2ccccc2)c2ccccc2)cc1`, the “photocatalytic hydrogen evolution rate” value came out at 0 µmol/h.
Under `O=C(O)c1cc(Br)ccc1Br` stands 0 µmol/h.
As to `N#Cc1cncc(-c2cncc(C#N)c2)c1`, the “photocatalytic hydrogen evolution rate” value turned out to be 0 µmol/h.
Under `O=Cc1cc(O)c(O)c(O)c1` stands 0 µmol/h; under `C(C#Cc1ccccc1)#Cc1ccccc1`, 0 µmol/h; under `N#CCc1ccc(C#N)cc1`, 0 µmol/h.
As to `CC1(C)c2ccccc2Oc2ccccc21`, the “photocatalytic hydrogen evolution rate” value came to 0.0132 µmol/h.
Consider `Nc1ccc(Br)cc1Br`, for which the “photocatalytic hydrogen evolution rate” value amounted to 0 µmol/h.
In the case of `N#Cc1cccnc1Br`, the “photocatalytic hydrogen evolution rate” value was found to be 0 µmol/h.
Under `O=C(O)c1ccc(-c2ccc(-c3cc(-c4ccc(-c5ccc(C(=O)O)cc5)cc4)cc(-c4ccc(-c5ccc(C(=O)O)cc5)cc4)c3)cc2)cc1` stands 0 µmol/h.
As to `CC1(C)OB(c2cc3ccc4cc(B5OC(C)(C)C(C)(C)O5)cc5ccc(c2)c3c45)OC1(C)C`, the “photocatalytic hydrogen evolution rate” value was 0.0847 µmol/h.
With `COC(=O)c1cc(C(=O)OC)c(C(=O)OC)cc1C(=O)OC`, the “photocatalytic hydrogen evolution rate” value came out at 0 µmol/h.
As for `Cc1cc(C)c(Nc2ccc(Nc3c(C)cc(C)cc3C)c3c2C(=O)c2ccccc2C3=O)c(C)c1`, the “photocatalytic hydrogen evolution rate” value is 0.331 µmol/h.
In the case of `N#Cc1c(F)c(F)c(F)c(C#N)c1F`, the “photocatalytic hydrogen evolution rate” value turned out to be 0.386 µmol/h.
As to `N#Cc1ccc(C#N)c2ccccc12`, the “photocatalytic hydrogen evolution rate” value came to 0.0654 µmol/h.
Under `O=Cc1ccc(O)c(O)c1` stands 0 µmol/h; under `Brc1ccc(C#CC#Cc2ccc(Br)cc2)cc1`, 0 µmol/h; under `Brc1c(Br)c(Br)c(Br)c(Br)c1Br`, 0 µmol/h.
For `FC(F)(F)c1cc(Br)ccc1Br`, the “photocatalytic hydrogen evolution rate” value was 0 µmol/h.
With `Fc1c(F)c(F)c(B(c2c(F)c(F)c(F)c(F)c2F)c2c(F)c(F)c(F)c(F)c2F)c(F)c1F`, the “photocatalytic hydrogen evolution rate” value turned out to be 0.0455 µmol/h.
As to `O=Cc1cc(Br)cc(C=O)c1`, the “photocatalytic hydrogen evolution rate” value turned out to be 0.831 µmol/h.
As for `N#Cc1ccc(Br)cn1`, the “photocatalytic hydrogen evolution rate” value was 0 µmol/h.
On to `C#Cc1ccccc1C#N`, for which the “photocatalytic hydrogen evolution rate” value is 0 µmol/h.
For `Brc1ccc2ccc3c(Br)ccc4ccc1c2c43`, the “photocatalytic hydrogen evolution rate” value came out at 0.16 µmol/h.
With `Oc1c(F)c(F)c(O)c(F)c1F`, the “photocatalytic hydrogen evolution rate” value was found to be 0 µmol/h.
Take `N#Cc1c2ccccc2c(C#N)c2ccccc12`: the “photocatalytic hydrogen evolution rate” value was found to be 0.0714 µmol/h.
Consider `OB(O)c1ccc(Br)nc1`, for which the “photocatalytic hydrogen evolution rate” value came to 0 µmol/h.
Under `N#Cc1ccncc1Br` stands 0 µmol/h; under `COC(=O)c1ccc2cc(Br)ccc2c1`, 0 µmol/h.
Turning to `Brc1ccc(N(c2ccccc2)c2ccc(Br)cc2)cc1`, the “photocatalytic hydrogen evolution rate” value came to 0.729 µmol/h.
Under `N#Cc1cc(Br)cs1` stands 0 µmol/h; under `C1=Cc2cccc3cccc1c23`, 0 µmol/h.
For `c1ccc(Nc2cc(Nc3ccccc3)cc(Nc3ccccc3)c2)cc1`, the “photocatalytic hydrogen evolution rate” value was 0 µmol/h.
For `Brc1ccc(-c2cc(-c3ccc(Br)cc3)cc(-c3ccc(Br)cc3)c2)cc1`, the “photocatalytic hydrogen evolution rate” value stood at 0 µmol/h.
Under `O=Cc1cc(C=O)cc(C=O)c1` stands 0.0923 µmol/h.
Under `O=Cc1cc(O)ccc1O` stands 0 µmol/h; under `CCCCCCCCC1(CCCCCCCC)c2cc(Br)ccc2-c2ccc(Br)cc21`, 0 µmol/h.
On to `Nc1cc(C(=O)O)ccc1C(=O)O`, for which the “photocatalytic hydrogen evolution rate” value is 0.109 µmol/h.
For the compound `O=Cc1ccc(C=O)cc1`, the “photocatalytic hydrogen evolution rate” value was 0.0145 µmol/h.
Under `c1ccc2c(c1)c1ccccc1c1ccccc21` stands 0.022 µmol/h; under `Clc1ccc2ccc(Cl)nc2n1`, 0.122 µmol/h; under `CC1(C)OB(c2cc(B3OC(C)(C)C(C)(C)O3)cc(B3OC(C)(C)C(C)(C)O3)c2)OC1(C)C`, 0.0124 µmol/h.
As to `CC(C)(C)c1ccc(Nc2ccc(Nc3ccc(C(C)(C)C)cc3)c3c2C(=O)c2c(O)ccc(O)c2C3=O)cc1`, the “photocatalytic hydrogen evolution rate” value was found to be 0 µmol/h.
With `N#Cc1ccnc(Br)c1`, the “photocatalytic hydrogen evolution rate” value turned out to be 0.0187 µmol/h.
In the case of `O=Cc1ccc(-c2ccncc2)cc1`, the “photocatalytic hydrogen evolution rate” value turned out to be 3.29 µmol/h.
As for `Nc1ccc(S(=O)(=O)c2ccc(N)cc2)cc1`, the “photocatalytic hydrogen evolution rate” value was found to be 0.00797 µmol/h.
For the compound `c1ccc2c(c1)Nc1ccccc1O2`, the “photocatalytic hydrogen evolution rate” value was 0 µmol/h.
Turning to `CCOC(=O)c1ccc(C(=O)OCC)nc1`, the “photocatalytic hydrogen evolution rate” value came to 0.0237 µmol/h.
In the case of `c1ccc2c(c1)C1c3ccccc3C2c2ccccc21`, the “photocatalytic hydrogen evolution rate” value amounted to 0.0408 µmol/h.
As to `O=Cc1ccccc1C=O`, the “photocatalytic hydrogen evolution rate” value was determined as 0.491 µmol/h.
With `O=C1C(O)=C(O)C(=O)C(O)=C1O`, the “photocatalytic hydrogen evolution rate” value was 0 µmol/h.
